Experiments:
[1] = Stopped-flow spectrometry of peroxynitrite decomposition, absorption of peroxynitrite at 324 nm monitored; format: biochemical; details: pH 7.4 phosphate buffer
Description: FIG. 4 is stopped-flow spectroscopy of peroxynitrite decomposition catalyzed by FeTDCImP (12). (A) diode array scan of 10 μM (12) in pH 7.4 PBS mixed with 600 μM, t=2 s; (B) decay of peroxynitrite monitored at 324 nm, condition that same as in A. It was fitted into a first order kinetics model using KinetAssyst software. Data was average of four parallel experiments.
It was rationalized that the electron-withdrawing cationic feature elevated its catalytic activity as compared to anionic porphyrins, while its electron-donating anionic feature lowered its catalytic activity as compared to cationic porphyrins.

[2] = Determination of peroxynitrite decomposition catalysis: rates of reaction between peroxynitrite and iron porphyrins in phosphate buffer; format: biochemical; details: phosphate buffer pH=7.4
Description: To screen compounds for peroxynitrite decomposition catalytic activity of the invention, peroxynitrite is prepared and isolated as its sodium salt by the reaction of acidic hydrogen peroxide with sodium nitrite followed by rapid quenching with NaOH as set out by Halfpenny and Robinson, in J. Chem. Soc., 928-938 (1952). Peroxynitrite has an absorbance maximum at 302 nm with an extinction coefficient of 1670 M^−1 cm^−1. Therefore, it is possible to directly observe the decomposition of peroxynitrite by monitoring the change in absorbance at 302 nm by stop-flow spectrophotometric analysis. For example, the decomposition of peroxynitrite at an accelerated rate (relative to the natural decomposition rate of peroxynitrite) upon the addition of the decomposition catalysts of the invention.
A high rate of peroxynitrite decomposition is an important indicator of biological activity in vitro and in vivo. The rates of reaction between peroxynitrite and various iron porphyrins were measured at several different concentrations of catalyst in phosphate buffer (pH=7.4). The ONOO^− decay rate (M^−1s^−1) for FeTDMImP was determined to be […], and the keat, for FeTDCMImP was measured at 4.6×10^5. In the same studies the decay rates for the iron porphyrins FeTDMImP, FeTDCMImP, FeTDPImP (see, e.g., U.S. Pat. No. 6,448,239) were 1.1×10^6. 4.6×10^5 and 1.9×10^6, respectively.

Molecule | second order rate constant of peroxynitrite decomposition [1] [M⁻¹ s⁻¹] | decay rates for the iron porphyrins (in the same studies) [2] | keat [2]
iron(III) meso-tetrakis(N,N-dicarboxymethyl)-imidazol-2-yl)porphyrin [FeTDCMImP] | 430000 | 4.6×10^5 | 4.6×10^5
COCCOCCn1cc[n+](CCOCCOC)c1-c1c2nc(c(-c3n(CCOCCOC)cc[n+]3CCOCCOC)c3ccc([n-]3)c(-c3n(CCOCCOC)cc[n+]3CCOCCOC)c3nc(c(-c4n(CCOCCOC)cc[n+]4CCOCCOC)c4ccc1[n-]4)C=C3)C=C2.[Fe+3] [FeTDPImP, iron(III) meso-tetrakis(N,N-di-(2-(2-methoxyethoxy)ethyl)-imidazol-2-yl)porphyrin] |  | 1.9×10^6 | 

From patent publication US8334377B2, “Porphyrin catalysts and methods of use thereof” (The Trustees of Princeton University, priority 2006, dated 2012)
